Assay results taken from patent publication US9649382B2, “Topical bioadhesive formulations” (CAMURUS AB, priority 2005, dated 2017).
Structures can show the parent of a compound that is named as a salt.

Tests used:
[1] = SAXD nanostructure of lipid compositions hydrated with PBS; assay type: physicochemical; conditions: for API concentration at which the cubic Fd3m structure is not significantly altered / API concentration at which the cubic structure is completely lost / API concentration at which transformation into L2 solution begins: SPC/GDO 35/65, lipid/EtOH/PG 85/10/5, PBS
Method: Aqueous phase behavior was studied by hydrating non-aqueous lipid formulations with phosphate buffered saline (0.01 M phosphate buffer with 0.137 M NaCl and 0.002 M KCl, pH 7.4) at various weight ratios: 2:1, 1:1, 1:2 and 1:9. After brief vortexing, samples were left to equilibrate at room temperature for 1 week before X-ray diffraction measurements.
The nanostructure of hydrated lipid samples was studied using synchrotron small angle X-ray diffraction (SAXD). Measurements were performed at the 1911 beam-line at MAX-lab (Lund University, Sweden), using a Pilatus 1M 165 mm CCD detector with a resolution of 981×1043 pixels at a pixel size of 0.172 mm. The lipid samples were mounted between kapton windows in a steel sample holder at a sample-to-detector distance of 1312 mm. Diffractograms were recorded at the X-ray wavelength of 0.91 Å and a beam size of 0.25×0.25 mm (full width at the half maximum) at the sample. Temperature control within 0.1° C. was achieved using computer controlled Julabo heating circulator F12-MC (Julabo Labortechnik GMBH, Seelbach, Germany). When temperature effects were studied, the experiments were performed successively at 25° C., 37° C. and 42° C. with a 3-min exposure time at each temperature and a wait of 10 minutes between temperature steps. The resulting CCD images were integrated and analysed using the Fit2D software provided by Dr. A. Hammersley (http://www.esrf.fr/computing/scientific/FIT2D). Silver behanate calibrated sample-to-detector distance and detector positions were used.

[2] = Depot injected into rat periodontal pocket; assay type: in vivo; conditions: PC/GDO/EtOH/Gardol (34/51/10/5) injected into rat periodontal pocket
Method: In order to treat periodontitis or perimplantitis an antibacterial formulation is injected in the periodontal pocket, and a prolonged effect of the formulation is normally desired. […] The injected composition is observed to transform from the low viscous formulation, and which initially spreads out to fill voids, to form a solid mass by uptake of gingival fluids. An antibacterial depot system is thus provided.
This formulation is injected into the rat periodontal pocket.
Gardol is observed to remain at clinically effective levels in the GCF of the periodontal pockets for a prolonged period (several days).

[3] = Surface gel formation of chlorhexidine depots in situ; assay type: physicochemical; conditions: applied as a liquid, bioadhesive gel in situ
Source text: For topical bioadhesive, controlled release products for intraoral (including buccal & periodontal) administration; • i. benzydamine (local analgesic, anti inflammatory) or other local analgesic, analgesic, anti inflammatory, anti bacterial, anti fungal or combination thereof. Composition provides sustained effect at intraoral mucosa, in particular damaged, sensitised, infected mucosa e.g. in patients suffering from oral mucositis (induced by e.g. chemo- and radiotherapy). In particular for treatment of oral mucositis. • ii. tramadol (analgesic). […] Particularly for long acting effect in periodontal pocket.

[4] = stated as clinically effective level; cited from earlier work

CN(C)CCCOc1nn(Cc2ccccc2)c2ccccc12 [BZD, benzydamine]
phase formed at lipid formulation to PBS weight ratio of 1:1 ([1]; 3 wt % BZD, SPC/GDO 35/65): cubic Fd3m LC phase is formed
effect on Fd3m LC phase at SPC/GDO weight ratio of 30/70 ([1]; 3 wt % of BZD, 25° C.): transforms into L2 solution
API concentration at which the cubic Fd3m structure is not significantly altered [1]: up to 3.5 wt %

CN1C2CCCC1CC(NC(=O)c1nn(C)c3ccccc13)C2 (stereo not shown) [GRN, Granisetron hydrochloride]
API concentration at which the cubic structure is completely lost [1]: about 1.5 wt %
API concentration at which transformation into L2 solution begins [1]: 0.8 wt %

CCCCCCCCCCCC(=O)N(C)CC(=O)[O-].[Na+] [Gardol, Glycine, N-methyl-N-(1-oxododecyl)-, sodium salt]
time Gardol remains at clinically effective levels in the GCF of the periodontal pockets [2]: several days

CCN(CC)CC(=O)Nc1c(C)cccc1C [LID, Lidocaine]
API concentration at which the cubic Fd3m structure is not significantly altered [1]: ≤ 1.7 wt %
API concentration at which the cubic structure is completely lost [1]: lower than 3 wt %
API concentration at which transformation into L2 solution begins [1]: 2 wt %

CC1(C)O[C@@H]2C[C@H]3[C@@H]4CCC5=CC(=O)C=C[C@]5(C)[C@@]4(F)[C@@H](O)C[C@]3(C)[C@]2(C(=O)CO)O1 [TCA, triamcinolone acetonide]
effect on formation and lattice dimensions of the cubic structure ([1]; SPC/GDO 35/65, lipid/EtOH/PG 85/10/5): very little effect
API concentration at which the cubic Fd3m structure is not significantly altered [1]: ≥ 5 wt %

N=C(NCCCCCCNC(=N)NC(=N)Nc1ccc(Cl)cc1)NC(=N)Nc1ccc(Cl)cc1.O=C(O)[C@H](O)[C@@H](O)[C@H](O)[C@H](O)CO.O=C(O)[C@H](O)[C@@H](O)[C@H](O)[C@H](O)CO [chlorhexidine gluconate]
Surface gel formation time [3]: between 1 second and 5 min

chlorhexidine
MIC [4]: 125 mg/L
